From patent US11672802B2, “Induction of immune tolerance by using methotrexate” (Genzyme Corporation, priority 2011, dated 2023)

Tests used:
[1] = tested on: anti-rhGAA antibody titers; experiment: Adoptive transfer of splenic B cells from tolerized mice; format: in vivo, C57BL/6 mice; settings: donors treated with Myozyme and a single cycle of methotrexate
Protocol: C57BL/6 mice were obtained from Jackson Laboratories and were housed under specific pathogen free conditions. Control mice were given a single intravenous injection of rhGAA at 20 mg/kg. Tolerized mice were given a single intravenous injection of rhGAA at 20 mg/kg, in addition to three daily consecutive methotrexate intraperitoneal injections of 0.5 mg. Spleens were harvested on day six after the initial rhGAA injection, from both donor groups, and processed into pooled single cell suspensions. Cells were washed and filtered through a […]. Cells were then enriched for B cells using a StemCell Technologies RoboSep cell separation system, and resuspended to allow for a 200 μl intravenous injection. Tolerized and non-tolerized recipient groups received either a high cell 10×10^6 or a low cell 5×10^6 concentration via intravenous injections. Control groups were given rhGAA only, or rhGAA and methotrexate (single cycle of three consecutive daily MTX injections). All groups received weekly intravenous rhGAA 20 mg/kg injections, and were retro-orbitally bled biweekly for 16 weeks, into BD Vacutainer serum separator tubes. Serum was removed and stored below −20° C. until used for ELISA. Anti-rhGAA antibody titers were determined using ELISA, read on a SpectraMax M2, and calculated using Softmax to extrapolate titer value. […]

anti-rhGAA IgG = experiment: Anti-rhGAA IgG ELISA titers in mice treated with rhGAA; format: in vivo; settings: for anti-rhGAA titers: IL-10 knockout animals, rhGAA and methotrexate
Protocol: Recombinant human alglucosidase alfa (rhGAA, marketed by Genzyme Corp. as Myozyme®) was used as a formulated drug product. Mice were treated weekly with 20 mg/kg of rhGAA by bolus tail vein injection unless stated differently. All mice were treated prophylactically with 5 to 30 mg/kg diphenhydramine (Baxter Healthcare Corporation, Deerfield, Ill.) intraperitoneally prior to rhGAA administration. Control animals were treated intravenously with either sterile 0.9% saline or rhGAA-formulation buffer. Methotrexate treatment
Mice were bled 4-6 days following rhGAA treatment and specific IgG was measured by ELISA. […] Endpoint titers were defined as the reciprocal of the sample dilution resulting in an absorbance value of 0.2 using Softmax software (Molecular Devices, Sunnyvale, Calif.).
C57Bl/6 mice were treated with one 20 mg/kg intravenous dose of rhGAA (Genzyme Corporation), 3 consecutive intraperitoneal doses of 5 mg/kg methotrexate (APP Pharmaceuticals, LLC), and either 1D11 or 13C4 at 5 mg/kg (Genzyme Corporation) for 3 doses every other day. Methotrexate, 1D11, and 13C4 treatment commenced with rhGAA injections. Spleens were collected 7 days after treatment initiation and were processed as described above for B cells, culture and flow analysis. Additionally, rhGAA titer data was obtained by treating animals as described above, with rhGAA dosed weekly over 12 weeks, methotrexate dosed for either 1 or 3 cycles, and 1D11 or 13C4 dosed 3 times a week every other day for 12 weeks. Serum samples were collected every 2 weeks for ELISA analysis.

Question: With `CN(Cc1cnc2nc(N)nc(N)c2n1)c1ccc(C(=O)N[C@@H](CCC(=O)O)C(=O)O)cc1` [methotrexate, Methotrexate] as the compound, how does the “transfer of immune tolerance to Myozyme in naive hosts by total splenic B cells” value [1] read?
Answer: could transfer immune tolerance

Question: What about the anti-rhGAA responses (anti-rhGAA IgG; C57BL/6 wild-type, rhGAA and three cycles methotrexate, weeks 4, 6 and 9) of the same compound?
Answer: decreased

Question: What about the anti-rhGAA titers (anti-rhGAA IgG; week 9) of the same compound?
Answer: slight decrease

Question: And the anti-rhGAA titers (anti-rhGAA IgG; weeks 4 and 6)?
Answer: not decreased

Question: And the “duration of control of anti-rhGAA responses” value (anti-rhGAA IgG; single cycle of three daily doses of 5 mg/kg methotrexate at week 1)?
Answer: at least 20 weeks

Question: What about the “animals exhibiting high anti-rhGAA titers” value (anti-rhGAA IgG; week 6, rhGAA alone, rhGAA + methotrexate, or with 5 mg/kg 1D11 or 13C4) of the same compound?
Answer: none
